We go through two molecules from patent US12109264B2, “Motile sperm domain containing protein 2 and inflammation” (ImmuneWalk Therapeutics, Inc., priority 2015, dated 2024).

“Also recorded” adds a separate entry of the source.

One test relates to monocytes. Conditions: cited from earlier work.
Test [1] deals with T1, MOSPD2 (Homo sapiens, UniProt Q8NHP6).
T1 construct: labelled VB-201 and VB-221 were employed on cell lysates from human CD14 monocytes; endogenous in cells; host or cells: primary human CD14 monocytes from peripheral blood of healthy donors
T1 sequence (Q8NHP6 1-518): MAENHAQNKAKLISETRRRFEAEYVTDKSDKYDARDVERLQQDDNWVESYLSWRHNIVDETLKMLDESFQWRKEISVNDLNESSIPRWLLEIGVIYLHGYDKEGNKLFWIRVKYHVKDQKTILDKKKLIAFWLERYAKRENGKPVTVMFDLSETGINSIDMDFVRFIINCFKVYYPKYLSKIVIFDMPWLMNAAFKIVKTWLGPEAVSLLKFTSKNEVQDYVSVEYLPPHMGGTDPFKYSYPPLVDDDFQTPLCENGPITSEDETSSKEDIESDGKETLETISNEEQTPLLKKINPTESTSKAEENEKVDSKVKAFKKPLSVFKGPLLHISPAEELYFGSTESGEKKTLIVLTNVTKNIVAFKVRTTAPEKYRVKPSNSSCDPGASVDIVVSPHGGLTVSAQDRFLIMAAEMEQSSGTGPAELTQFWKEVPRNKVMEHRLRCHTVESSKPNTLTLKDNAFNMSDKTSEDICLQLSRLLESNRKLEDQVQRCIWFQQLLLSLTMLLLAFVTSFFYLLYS
Nature of the test: Precipitation of human monocyte proteins with labeled compound, differential display by Mass-Spectrometry. Conditions: proteins from human monocytes. It counts as binding.

For test [2], the target named is T2, HA-tagged human MOSPD2 on HEK293 cells (Homo sapiens, UniProt Q8NHP6).
T2 construct: Full length human MOSPD2 cDNA was inserted, using EcoRI and XbaI restriction sites; HA (YPYDVPDYA); expressed in transfected cells; host or cells: HEK293
T2 sequence (Q8NHP6 1-518): T1 sequence (Q8NHP6 1-518)
Nature of the test: Cell-surface binding by flow cytometry on transfected HEK293 cells. The note with it: for staining of / binding to cells that express MOSPD2 (HA positive): labelled compound (OB201/OB221), streptavidin-APC, HEK293 transfected with HA-tagged MOSPD2. As for the experimental part:
HEK293 cells were transfected for 48 hours with empty plasmid or plasmid encoding hemagglutinin (HA)-tagged human MOSPD2 using jetPRIME transfection reagent (Polyplus transfection, France). Transfection efficiency was determined by flow cytometry using anti-HA-PE (miltenyi Biotec, Germany) antibody.
(§1) VB-201 and VB-221 were labeled with biotin as follows. VB-201, VB-221 and ovalbumin (OVA, Sigma, Israel) were dissolved in 0.1M MES buffer (Thermo Scientific, Rockford, IL) and conjugated using EDC [1-ethyl-3-(dimethylaminopropyl) carbodiimide HCL] (Thermo Scientific) at a molar ratio of 100 (VB-201/VB-221):1 (OVA):240 (EDC) for 2-3 hr at room temperature. After which, samples were transferred to 10 kDa dialysis cassettes (Thermo Scientific) and dialyzed overnight against PBS. The ovalbumin bound VB-201 (OB201) and VB-221 (OB221) were then conjugated with amine-PEG2-biotin (in 0.1M MES buffer) using EDC at a molar ratio of 1 (OB201/0B221):100 (amine-PEG2-biotin):700 (EDC). The reaction was allowed to proceed for 2-3 hr at room temperature after which samples were again transferred to a 10 kDa dialysis cassette and dialyzed overnight against PBS.
Streptavidin-APC (eBioscience, San Diego, CA) was used to detect binding of labelled VB-201 or VB-221 in flow cytometry experiments.
Studies were also conducted to assess whether VB-201 can bind MOSPD2 in its native form, when expressed on the cell surface. Thus, HEK293 cells were transfected with a plasmid encoding HA-tagged human MOSPD2 and then stained with labelled VB-201 or VB-221.
(In general: Flow cytometry measures light scatter and fluorescence of single cells or particles in a stream.)

Test [3] has as its target T1, MOSPD2. Nature of the test: Precipitation from human CD14 monocyte lysate, blot against MOSPD2. It counts as binding. The note with it: labelled compound (OB201/OB221). As for the experimental part:
as §1
(§2) Cells were lysed using a 1% NP-40 lysis buffer containing 1:100 protease and phosphatase inhibitors, followed by 20 min incubation on ice and 15 min centrifugation at maximum speed. Samples were incubated overnight at 4° C. with solvent, OB201 or OB221 in a rotator. Streptavidin agarose beads (Sigma, Israel) were added for 2 hours. Protein elution was performed with lysis buffer without DTT for 10 min at room temperature. Sample loading, transfer and immuno-blotting were performed as described above. […]

The next test addresses T3, TLR2 (Homo sapiens, UniProt O60603).
T3 construct: endogenous in cells; host or cells: primary human CD14 monocytes
Kind of test: Precipitation from human CD14 monocyte lysate, blot against TLR2. Conditions: labelled compound (OB201/OB221). It counts as binding. As for the experimental part: as §1, §2

Test [4] has as its system chemokine-induced signaling in human monocytes. Conditions: cited from earlier work.

T3 sequence (O60603 21-784): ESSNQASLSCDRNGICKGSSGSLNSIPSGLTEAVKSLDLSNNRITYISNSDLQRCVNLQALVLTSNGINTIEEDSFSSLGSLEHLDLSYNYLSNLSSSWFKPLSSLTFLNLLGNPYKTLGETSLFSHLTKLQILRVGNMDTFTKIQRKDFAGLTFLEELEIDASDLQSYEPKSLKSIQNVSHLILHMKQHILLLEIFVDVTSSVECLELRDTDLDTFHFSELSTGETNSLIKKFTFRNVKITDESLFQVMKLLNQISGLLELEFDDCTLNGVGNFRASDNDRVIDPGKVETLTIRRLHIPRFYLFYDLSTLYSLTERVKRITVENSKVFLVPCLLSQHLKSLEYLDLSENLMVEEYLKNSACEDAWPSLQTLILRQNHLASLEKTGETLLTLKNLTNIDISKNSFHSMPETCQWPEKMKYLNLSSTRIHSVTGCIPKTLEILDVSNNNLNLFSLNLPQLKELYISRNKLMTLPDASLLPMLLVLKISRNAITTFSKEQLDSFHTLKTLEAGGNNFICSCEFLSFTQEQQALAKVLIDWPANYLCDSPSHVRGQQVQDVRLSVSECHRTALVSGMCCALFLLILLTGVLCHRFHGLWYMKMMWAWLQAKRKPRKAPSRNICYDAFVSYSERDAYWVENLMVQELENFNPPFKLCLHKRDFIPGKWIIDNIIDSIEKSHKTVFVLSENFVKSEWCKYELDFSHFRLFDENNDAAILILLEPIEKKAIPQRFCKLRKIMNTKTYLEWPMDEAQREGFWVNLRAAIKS

In the case of “1-hexadecyl-2-(4′-carboxy)butyl-glycero-3-phosphocholine [VB-201]”, the migration of monocytes entry with monocytes (in vitro and in vivo) is given as “inhibits”. Besides, at MOSPD2 [1], the “binding of MOSPD2 (Mass-Spectrometry of precipitated proteins)” value is listed as “strong binding”. Besides, the “binding to cells transfected with empty vector” value in test [2] (HEK293 transfected with empty vector) is reported as “not”. The “staining of / binding to cells that express MOSPD2 (HA positive)” value in test [2] is recorded as “binds; also recorded: profound staining”. On MOSPD2 [3], the “precipitation of MOSPD2” value is “binds; also recorded: markedly more intense than VB-221”. Further, on TLR2, the “precipitation of TLR2” value was “comparable intensity”.
In the case of `CCCCCCCCCCC(CCCCCCCC)COCC(COP(=O)([O-])OCC[N+](C)(C)C)OCCCCC(=O)O` (centres unmarked) [VB-221, 1-(2′-octyl)dodecyl-2-(4′-carboxy)butyl-glycero-3-phosphocholine], in test [4], the “chemokine-induced signaling in human monocytes” value was “did not inhibit”. Also, in the test on monocytes, the “chemokine-induced migration in human monocytes” value is “did not inhibit”. Also, the “binding of MOSPD2 (Mass-Spectrometry of precipitated proteins)” value on MOSPD2 [1] is recorded as “not”. Besides, the “staining of / binding to cells that express MOSPD2 (HA positive)” value in test [2] was “only weak staining”. In addition, the “precipitation of TLR2” value at TLR2 is “comparable intensity”.
